Reference: article PMC8985094, “Chemical constituents from Carica papaya Linn. leaves as potential cytotoxic, EGFR^wt and aromatase (CYP19A) inhibitors; a study supported by molecular docking” (RSC Advances, 2022)
Where two headings read alike, the source gives them in different places.

Assays:
EGFR^wt kinase = EGFR^wt kinase (Homo sapiens, UniProt P00533); assay: EGFR^wt kinase inhibition assay (BPS Kinase Assay Kit, Kinase-Glo)
Protocol: Then, the reaction was stopped by the addition of a detecting reagent (Kinase-Glo Max reagent), followed by incubation at room temperature for another 15 min. Finally, luminescence was measured using the microplate Robonik P2000 ELISA Reader.

aromatase (CYP19A) = target: T1, aromatase (CYP19A) (Homo sapiens, UniProt P11511); assay: Aromatase (CYP19A) inhibitor screening kit (fluorometric); type: biochemical
T1 construct: purchased Bio Vision
T1 sequence (P11511 1-503): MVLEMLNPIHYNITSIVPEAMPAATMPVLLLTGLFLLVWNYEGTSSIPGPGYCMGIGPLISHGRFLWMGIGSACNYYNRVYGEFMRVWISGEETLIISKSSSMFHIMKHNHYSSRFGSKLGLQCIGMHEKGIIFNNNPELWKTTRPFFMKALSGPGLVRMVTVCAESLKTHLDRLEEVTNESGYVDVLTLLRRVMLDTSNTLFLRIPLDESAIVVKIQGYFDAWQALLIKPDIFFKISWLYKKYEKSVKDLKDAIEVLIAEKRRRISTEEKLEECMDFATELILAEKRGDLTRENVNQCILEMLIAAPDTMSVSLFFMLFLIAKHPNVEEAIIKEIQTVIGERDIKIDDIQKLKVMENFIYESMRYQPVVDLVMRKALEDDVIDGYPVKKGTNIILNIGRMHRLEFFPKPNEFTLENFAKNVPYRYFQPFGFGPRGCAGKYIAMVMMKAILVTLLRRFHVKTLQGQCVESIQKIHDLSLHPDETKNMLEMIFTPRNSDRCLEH
Protocol: Breast cancer is mostly reliant on estrogen or progesterone, especially in postmenopausal females. […] Aromatase is the key enzyme that acts on androgen precursors for the synthesis of estrogen. Aromatase inhibitors are used to either block the production of estrogen or block the action of estrogen on its receptors and for treatment of estrogen dependant breast cancer.[32,33]
The compounds were dissolved in DMSO in concentrations ranging from 10 to 10^4 nM. The recombinant human aromatase stock was prepared according to the protocol and the samples were added and the plate was incubated for 10 min at 37 °C to allow tested compounds to interact with the aromatase.
(§1) Results are expressed as mean ± standard deviation (SD) based on triplicate experiments. The IC50 values of the tested compounds were determined using curve fitting in the R programming language and associated packages including Magrittr,[45] drc[46] and ggplot2.[47] Graphs and figures were generated using R console and PyMOL (PyMOL Molecular Graphics System, Schrödinger).

MCF-7 cell line = assay: MTT cytotoxicity assay in breast cancer cell line (MCF-7); type: cell-based; details: Homo sapiens, read-out: IC50 on MCF-7 cell lines
Protocol: The cytotoxic effect of the isolated compounds from C. papaya on MCF-7 cells line was evaluated using MTT assay which measures metabolic activity as an indicator of cellular viability and proliferation.
Briefly, breast cancer cell line (MCF-7) were obtained from American Type Culture Collection and cultured in DMEM medium (Invitrogen/Life Technologies) supplemented with 10% FBS (Hyclone, USA). Insulin (10 μg mL^−1, Sigma-Aldrich, USA) and 1% penicillin–streptomycin. the cells were seeded in 96-well plates (VWR, Switzerland) at cell density 1.2–1.8 × 10^4 cells per well. […] After treatments, the medium was removed from all wells of the plate and 20 μL of the MTT reagent (Sigma-Aldrich, USA) (0.5 mg mL^−1) in PBS was added and incubated for 3.5 h at 37 °C. The solution was removed and 50 μL of DMSO was added, incubated for 5 min and the absorbance was measured at 570 nm.
as §1

[1] = in vitro enzymatic inhibition, recombinant human aromatase, mean ± SD, read-out: IC50 Aromatase
[2] = MCF7, MTT assay, 24 h treatment, mean ± SD

Chain of EGFR^wt kinase (P00533 25-1210): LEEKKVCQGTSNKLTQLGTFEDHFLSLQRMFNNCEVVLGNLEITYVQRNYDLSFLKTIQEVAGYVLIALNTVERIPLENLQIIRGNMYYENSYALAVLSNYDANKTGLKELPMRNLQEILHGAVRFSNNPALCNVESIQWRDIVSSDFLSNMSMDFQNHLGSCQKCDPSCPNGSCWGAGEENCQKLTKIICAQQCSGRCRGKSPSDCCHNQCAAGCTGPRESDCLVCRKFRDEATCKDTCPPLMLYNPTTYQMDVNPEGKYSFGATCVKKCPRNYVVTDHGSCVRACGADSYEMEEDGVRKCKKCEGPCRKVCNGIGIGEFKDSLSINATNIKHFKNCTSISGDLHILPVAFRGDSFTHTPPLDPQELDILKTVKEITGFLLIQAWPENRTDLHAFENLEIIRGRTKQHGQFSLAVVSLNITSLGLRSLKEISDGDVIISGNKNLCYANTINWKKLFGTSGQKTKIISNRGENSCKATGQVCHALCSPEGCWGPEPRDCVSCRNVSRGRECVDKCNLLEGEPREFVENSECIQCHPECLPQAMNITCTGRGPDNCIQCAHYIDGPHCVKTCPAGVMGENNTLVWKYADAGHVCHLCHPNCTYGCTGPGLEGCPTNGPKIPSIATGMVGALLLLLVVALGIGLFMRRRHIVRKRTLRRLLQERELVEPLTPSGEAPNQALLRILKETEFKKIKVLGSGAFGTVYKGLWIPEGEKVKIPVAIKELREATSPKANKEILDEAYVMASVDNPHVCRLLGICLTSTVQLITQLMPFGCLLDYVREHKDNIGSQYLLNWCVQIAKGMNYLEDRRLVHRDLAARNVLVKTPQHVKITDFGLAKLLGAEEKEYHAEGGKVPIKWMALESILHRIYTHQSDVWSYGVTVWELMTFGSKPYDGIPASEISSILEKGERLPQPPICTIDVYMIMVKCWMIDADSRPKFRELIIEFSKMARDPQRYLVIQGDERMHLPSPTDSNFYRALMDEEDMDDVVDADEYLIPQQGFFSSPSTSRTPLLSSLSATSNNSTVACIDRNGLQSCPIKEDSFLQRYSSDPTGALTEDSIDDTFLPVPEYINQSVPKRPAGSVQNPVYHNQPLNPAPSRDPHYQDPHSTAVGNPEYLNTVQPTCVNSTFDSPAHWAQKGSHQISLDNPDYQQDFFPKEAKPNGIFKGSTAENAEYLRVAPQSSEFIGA

IC50 (EGFR^wt kinase) | IC50 (aromatase (CYP19A); [1]) | Compound | IC50 (MCF-7 cell line; [2]) | IC50 (aromatase (CYP19A)) | IC50 (MCF-7 cell line; MCF7, 24 h)
41.1 ± 2.1 nM | 92.8 ± 5.44 nM | C[C@@H]1O[C@@H](OC[C@H]2O[C@@H](Oc3c(-c4ccc(O)cc4)oc4cc(O)cc(O)c4c3=O)[C@H](O)[C@@H](O)[C@@H]2O)[C@H](O)[C@H](O)[C@H]1O [Compound 8, kaempferol-3-O-rutinoside] | 4940 ± 280 nM | – | –
83.4 ± 4.2 nM | 354 ± 20.7 nM | O=c1c(O[C@@H]2O[C@H](CO)[C@@H](O)[C@H](O)[C@H]2O)c(-c2ccc(O)c(O)c2)oc2cc(O)cc(O)c12 [Compound 7, quercetin-3-O-β-D-glucopyranoside] | 13100 ± 750 nM | – | –
37.3 ± 1.9 nM | 94.1 ± 5.51 nM | COC(=O)c1cc(O)c(O)c(O)c1 [Compound 2, methyl gallate] | 1110 ± 60 nM | – | –
100 ± 5.1 nM | 436 ± 25.6 nM | COc1cc(-c2oc3cc(O)cc(O)c3c(=O)c2OC2OC(CO)C(O)C(O)C2O)ccc1O [Compound 9, isorhamnetin 3-O-β-D-glucopyranoside] | 9510 ± 540 nM | – | –
89.6 ± 4.6 nM | 77.4 ± 4.53 nM | C[C@@H]1O[C@@H](OC[C@H]2O[C@@H](Oc3c(-c4ccc(O)cc4)oc4cc(O)cc(O)c4c3=O)[C@H](O[C@@H]3O[C@@H](C)[C@H](O)[C@@H](O)[C@H]3O)[C@@H](O)[C@@H]2O)[C@H](O)[C@H](O)[C@H]1O [Compound 5, kaempferol 3-O-(2′′,6′′-di-α-O-rhamnopyranosyl)-β-glucopyranoside] | 2470 ± 140 nM | – | –
64.5 ± 3.3 nM | 335 ± 19.6 nM | C[C@@H]1O[C@@H](O[C@H]2[C@H](Oc3c(-c4ccc(O)cc4)oc4cc(O)cc(O)c4c3=O)O[C@H](CO)[C@@H](O)[C@@H]2O)[C@H](O)[C@H](O)[C@H]1O [Compound 6, kaempferol 3-O-(2′′-O-α-L-rhamnopyranosyl)-β-D-glucopyranoside] | 3580 ± 200 nM | – | –
68.8 ± 3.5 nM | 208 ± 12.2 nM | CC1(C)C[C@H](O)C[C@@]2(C)OC(=O)C=C12 [Compound 3, loliolide] | 28200 ± 1610 nM | – | –

Compound | IC50 (EGFR^wt kinase) | IC50 (aromatase (CYP19A); [1]) | IC50 (MCF-7 cell line; [2]) | IC50 (aromatase (CYP19A)) | IC50 (MCF-7 cell line; MCF7, 24 h)
C[C@@H]1N[C@@H]2CCCCCCCC(=O)O[C@H]3CC[C@@H](CCCCCCCC(=O)O[C@H]1CC2)N[C@H]3C [Compound 1, carpaine] | 47.6 ± 2.4 nM | – | – | 108 ± 6.32 nM | 13700 ± 780 nM
C[C@@H]1O[C@@H](OC[C@H]2O[C@@H](Oc3c(-c4ccc(O)c(O)c4)oc4cc(O)cc(O)c4c3=O)[C@H](O)[C@@H](O)[C@@H]2O)[C@H](O)[C@H](O)[C@H]1O [Compound 4, quercetin-3-O-rutinoside] | 44.5 ± 2.3 nM | 148 ± 8.64 nM | 25600 ± 1460 nM | – | –
